These results are taken from patent US20240083888A1, “SMALL MOLECULE INHIBITOR FOR CATHEPSIN C AND MEDICINAL USE THEREOF” (REISTONE BIOPHARMA COMPANY LIMITED, priority 2020, published 2024).

Each structure is given as a SMILES string. Structures can show the parent of a compound that is named as a salt.

Chain of rhCatC (P53634 25-134): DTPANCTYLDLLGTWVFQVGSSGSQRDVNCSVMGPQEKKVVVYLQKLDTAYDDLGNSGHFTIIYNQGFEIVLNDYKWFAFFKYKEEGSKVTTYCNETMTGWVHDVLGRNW
Chain of rhCatC (P53634 231-394): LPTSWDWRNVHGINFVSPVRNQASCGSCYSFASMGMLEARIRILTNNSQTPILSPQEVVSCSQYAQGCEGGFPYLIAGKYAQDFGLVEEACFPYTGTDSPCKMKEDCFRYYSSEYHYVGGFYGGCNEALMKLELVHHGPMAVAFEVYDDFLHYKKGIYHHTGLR
Chain of rhCatC (P53634 395-463): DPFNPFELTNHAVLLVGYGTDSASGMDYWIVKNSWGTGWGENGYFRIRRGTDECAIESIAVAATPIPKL

One assay concerns the target rhCatC (Homo sapiens (Human), UniProt P53634). In words: In vitro enzyme activity experiment of rhCatC (AMC fluorescence assay). It is filed as biochemical.
Details: not given
On the procedure: The in vitro inhibitory effect of compounds and positive control on rhCatC enzyme activity was evaluated by AMC fluorescence assay. rhCatC can catalyze the reaction of substrate peptide H-Gly-Arg-AMC, and release AMC to generate fluorescence. […] The compound was diluted with DMSO to a 384-well echo plate at a concentration of 100× of the highest concentration at the beginning of the experiment. 0.2 μL of the diluted compound was pipetted to a black-bottomed 384-well reaction plate for later use. The negative control well was DMSO. • 2) Activation of rhCatC: RhCatC and rhCatL were added to the activation buffer to obtain a final concentration of rhCatC of 100 μg/mL and a final concentration of rhCatL of 20 μg/mL, and incubated at room temperature for 1 hour. • 3) Enzyme activity reaction: Activated rhCatC was diluted to 0.4 μg/mL with the reaction buffer. The solution was added to the black-bottom 384-well reaction plate ([…]). 10 μL of the buffer was added for the vehicle control group. The plate containing compounds in its wells was incubated at room temperature for 30 minutes.
The RLU data was read, the inhibition rate was calculated, and the IC50 value was calculated according to the fitting curve of concentration and inhibition rate.
`N#Cc1cc2c(cn1)-c1cc(F)c(C[C@@H](C#N)NC(=O)[C@@H]3CNCCCO3)cc1OC2` [Compound 19, (S)—N—((S)-1-Cyano-2-(3-cyano-9-fluoro-5H-chromeno[4,3-c]pyridin-8-yl)ethyl)-1,4-oxazepane-2-carboxamide] had an IC50 of 32 nM. Compound `CS(=O)(=O)c1ccc2c(c1)-c1cc(F)c(CC(C#N)NC(=O)[C@@H]3CNCCCO3)cc1OC2` (stereo partly drawn) [Compound 43, (2S)—N-(1-Cyano-2-(2-fluoro-9-(methylsulfonyl)-6H-benzo[c]chromen-3-yl)ethyl)-1,4-oxazepane-2-carboxamide] registered an IC50 of 26 nM.

Still in this assay, the particulars now being: rhCatC enzyme, substrate H-Gly-Arg-AMC; read-out: Biological activity IC50.
`N#C[C@H](Cc1ccc2c(c1)CN(c1ccccc1)C2=O)NC(=O)C1(N)CCOCC1` [Compound 1, (S)-4-Amino-N-(1-cyano-2-(1-oxo-2-phenylisoindolin-5-yl)ethyl)tetrahydro-2H-pyran-4-carboxamide]: the IC50 was found to be 42 nM. Take `N#C[C@H](Cc1ccc2c(c1)CN(c1ccccc1)C2=O)NC(=O)[C@@H]1CNCCCO1` [Compound 2, (S)—N—((S)-1-Cyano-2-(1-oxo-2-phenylisoindolin-5-yl)ethyl)-1,4-oxazepane-2-carboxamide]: the IC50 is 710 nM. Take `N#CC(Cc1ccc2c(c1)CCCC2)NC(=O)[C@@H]1CNCCCO1` (stereo partly drawn) [Compound 3, (2S)—N-(1-Cyano-2-(5,6,7,8-tetrahydronaphthalen-2-yl)ethyl)-1,4-oxazepane-2-carboxamide trifluoroacetate]: the 50% inhibitory concentration (IC50) worked out at 4250 nM. In the case of `N#CC(Cc1ccc2c(c1)CCCC2)NC(=O)C1(N)CCOCC1` (stereo not drawn) [Compound 4, 4-Amino-N-(1-cyano-2-(5,6,7,8-tetrahydronaphthalen-2-yl)ethyl)tetrahydro-2H-pyran-4-carboxamide], the IC50 was 54 nM. On to `N#CC(Cc1ccc2c(c1)CCC2)NC(=O)[C@@H]1CNCCCO1` (stereo partly drawn) [Compound 5, (2S)—N-(1-Cyano-2-(2,3-dihydro-1H-inden-5-yl)ethyl)-1,4-oxazepane-2-carboxamide trifluoroacetate], for which the IC50 worked out at 3590 nM. Still for that read-out and setting: then `N#CC(Cc1ccc2c(c1)CCC2)NC(=O)C1(N)CCOCC1` (stereo not drawn) [Compound 6, 4-Amino-N-(1-cyano-2-(2,3-dihydro-1H-inden-5-yl)ethyl)tetrahydro-2H-pyran-4-carboxamide], with 56 nM; and `CN1CCc2cc(C[C@@H](C#N)NC(=O)[C@@H]3CNCCCO3)ccc2C1` [Compound 9, (S)—N—((S)-1-Cyano-2-(2-methyl-1,2,3,4-tetrahydroisoquinolin-6-yl)ethyl)-1,4-oxazepane-2-carboxamide], with 1740 nM. On the same count and under the same terms, then `N#C[C@H](Cc1ccc2c(c1)OCCC2)NC(=O)C1(N)CCOCC1` [Compound 10, (S)-4-Amino-N-(2-(chroman-7-yl)-1-cyanoethyl)tetrahydro-2H-pyran-4-carboxamide], with 74 nM. On to `N#CC(Cc1ccc2c(c1)OCc1cc(F)ccc1-2)NC(=O)[C@@H]1CNCCCO1` (stereo partly drawn) [Compound 11, (2S)—N-(1-Cyano-2-(8-fluoro-6H-benzo[c]chromen-3-yl)ethyl)-1,4-oxazepane-2-carboxamide formate], for which the IC50 came out at 74 nM. Turning to `N#CC(Cc1ccc2c(c1)COc1cc(F)ccc1-2)NC(=O)[C@@H]1CNCCCO1` (stereo partly drawn) [Compound 15, (2S)—N-(1-Cyano-2-(3-fluoro-6H-benzo[c]chromen-8-yl)ethyl)-1,4-oxazepane-2-carboxamide], the half-maximal inhibitory concentration (IC50) is 304 nM.

In the case of `CC1(C)Oc2cc(C[C@@H](C#N)NC(=O)[C@@H]3CNCCCO3)c(F)cc2-c2ccc(C#N)cc21` [Compound 27, (S)—N—((S)-1-Cyano-2-(8-cyano-2-fluoro-6,6-dimethyl-6H-benzo[c]chromen-3-yl)ethyl)-1,4-oxazepane-2-carboxamide], the IC50 was determined as 23 nM. For `N#Cc1cnc2c(c1)COc1cc(CC(C#N)NC(=O)[C@@H]3CNCCCO3)c(F)cc1-2` (stereo partly drawn) [Compound 33, (2S)—N-(1-Cyano-2-(3-cyano-9-fluoro-5H-chromeno[4,3-b]pyridin-8-yl)ethyl)-1,4-oxazepane-2-carboxamide], the IC50 came to 85 nM. As to `N#CC(Cc1ccc2c(c1)OCc1ccc(C3CCNC3)cc1-2)NC(=O)C1(N)CCOCC1` (stereo not drawn) [Compound 34, 4-Amino-N-(1-cyano-2-(9-(pyrrolidin-3-yl)-6H-benzo[c]chromen-3-yl)ethyl)tetrahydro-2H-pyran-4-carboxamide], the half-maximal inhibitory concentration (IC50) was determined as 6.2 nM.

With `N#C[C@H](Cc1cc2c(cc1F)-c1cc(C3COC3)c(F)cc1CO2)NC(=O)[C@@H]1CNCCCO1` [Compound 38A, (S)—N—((S)-1-Cyano-2-(2,8-difluoro-9-(oxetan-3-yl)-6H-benzo[c]chromen-3-yl)ethyl)-1,4-oxazepane-2-carboxamide], the IC50 turned out to be 1.3 nM. Consider `N#C[C@@H](Cc1cc2c(cc1F)-c1cc(C3COC3)c(F)cc1CO2)NC(=O)[C@@H]1CNCCCO1` [Compound 38B, (S)—N—((R)-1-Cyano-2-(2,8-difluoro-9-(oxetan-3-yl)-6H-benzo[c]chromen-3-yl)ethyl)-1,4-oxazepane-2-carboxamide], for which the IC50 was determined as 76 nM. On to `N#CC(Cc1ccc2c(c1)CCOc1cc(F)ccc1-2)NC(=O)C1(N)CCOCC1` (stereo not drawn) [Compound 39, 4-Amino-N-(1-cyano-2-(3-fluoro-6,7-dihydrodibenzo[b,d]oxepin-9-yl)ethyl)tetrahydro-2H-pyran-4-carboxamide], for which the IC50 stood at 46 nM. Turning to `N#C[C@H](Cc1ccc2c(c1)oc1cc(F)ccc12)NC(=O)C1(N)CCOCC1` [Compound 42, (S)-4-Amino-N-(1-cyano-2-(7-fluorodibenzo[b,d]furan-3-yl)ethyl)tetrahydro-2H-pyran-4-carboxamide], the IC50 came to 5.7 nM. For `N#C[C@H](Cc1ccc2c(c1)OCCN(c1ccc(F)cc1)C2=O)NC(=O)C1(N)CCOCC1` [Compound 44, (S)-4-Amino-N-(1-cyano-2-(4-(4-fluorophenyl)-5-oxo-2,3,4,5-tetrahydrobenzo[f][1,4]oxazepin-8-yl)ethyl)tetrahydro-2H-pyran-4-carboxamide], the IC50 was 39 nM. For `N#Cc1ccc(N2Cc3cc(C[C@@H](C#N)NC(=O)C4(N)CCOCC4)ccc3C2=O)cc1` [Compound 45, (S)-4-Amino-N-(1-cyano-2-(2-(4-cyanophenyl)-1-oxoisoindolin-5-yl)ethyl)tetrahydro-2H-pyran-4-carboxamide], the half-maximal inhibitory concentration (IC50) turned out to be 72 nM. Regarding `N#Cc1ccc(C(=O)N2Cc3ccc(C[C@@H](C#N)NC(=O)C4(N)CCOCC4)cc3C2)cc1` [Compound 46, (S)-4-Amino-N-(1-cyano-2-(2-(4-cyanobenzoyl)isoindolin-5-yl)ethyl)tetrahydro-2H-pyran-4-carboxamide], the IC50 was 54 nM. Turning to `N#Cc1cccc(N2Cc3cc(C[C@@H](C#N)NC(=O)C4(N)CCOCC4)ccc3C2=O)c1` [Compound 47, (S)-4-Amino-N-(1-cyano-2-(2-(3-cyanophenyl)-1-oxoisoindolin-5-yl)ethyl)tetrahydro-2H-pyran-4-carboxamide formate], the IC50 amounted to 29 nM. With `Cn1c(=O)oc2ccc(N3Cc4cc(C[C@@H](C#N)NC(=O)C5(N)CCOCC5)ccc4C3=O)cc21` [Compound 48, (S)-4-Amino-N-(1-cyano-2-(2-(3-methyl-2-oxo-2,3-dihydrobenzo[d]oxazol-5-yl)-1-oxoisoindolin-5-yl)ethyl)tetrahydro-2H-pyran-4-carboxamide], the IC50 came to 29 nM.
